From patent US20260202397A1, “POTENCY ASSAY FOR PHARMACEUTICAL PRODUCTS” (REPAIRON MUSCLE UG, priority 2022, published 2026)
Converted amounts (≈) assume the structure as drawn. “Also recorded” adds a separate entry of the source.

Legend:
[1] = Pirfenidone IC50 in vitro
[2] = test system: Engineered connective tissues (ECT); assay: ECT contraction by pole deflection analysis (reference ECT +/- TGF-β1); format: cell-based, human; conditions: 5 ng/ml TGF-β1 applied at day 4, day 10 of the drug effect testing phase (absolute day 13), 6 technical replicates
From the text: The general experimental procedure was identical for all used cells, including primary fibroblasts and iPSC-StC. Supporting information in view of the ECT model, in particular its generation, may also be found in Santos et al. (2021, Fibroblast Derived Human Engineered Connective Tissue for Screening Applications. J. Vis. Exp. e62700, doi: 10.3791/62700, PMID: 34487119), Santos et al. (2022, Using different geometries to modulate the cardiac fibroblast phenotype and the biomechanical properties of engineered connective tissues. Biomater Adv. 139:213041, PMID: 35909053), and EP20188364. In particular, acid solubilized, collagen type 1 was mixed 1:1 with 2× DMEM containing 20% fetal calf serum and antibiotics. […]
Pole deflection measurement and platforms are well-established in the art, cf. e.g. WO2017/207431 (also granted as DE 10 2016 110 328 B3). […] Pole deflection as a function of ECT compaction was calculated as follows: 100×(pole distanceday 0-pole distanceday x)/pole distanceday 0.
Reference ECT were analyzed, which were treated with a drug solvent in absence or presence of TGF-β1, with TGF-β1 application serving as additional reference with respect to pro-fibrotic drug characterization. […]

[3] = test system: Engineered connective tissues (ECT); assay: ECT stiffness (Young's modulus) by ultimate tensile testing; format: cell-based, human; conditions: 5 ng/ml TGF-β1, day 10 of the drug effect testing phase (absolute day 13), 8 replicates
Description: Reference ECT were generated and treated similar as described herein in Example 1. In contrast to the pole deflection analysis disclosed in Example 1 herein, 8 ECT were harvested for the ultimate tensile testing at the moment when the plateau was reached and before a drug solvent was applied with or without TGF-β1. Residual ECT were cultured for further 10 days. Then, macroscopic images were taken from the ECT on the poles to estimate their cross-sectional areas based on the observed ECT thicknesses. Ultimate tensile testing was performed with a dynamic mechanical analyzer (DMA). Therefore, ECT were loaded onto two hooks clamped to a DMA in a 37° C. tempered organ bath filled with PBS. Then, uniaxial stretch at a constant linear rate of approximately 1% (0.03 mm/s) was applied until the ECT ruptured. The recorded force traces were converted into stress-strain curves. The Young's modulus representing the stiffness of the ECT was analyzed by determining the slope of the linear part of curve within the elastic region (FIG. 3A). All measurements were performed in 8 replicates. […]

[4] = test system: BioEngineered Neuronal Organoids (BENOs); assay: Multi-electrode array (MEA) recording of BENO network activity; format: cell-based, human; conditions: for Burst Frequency (Hz) / Interspike Interval in a burst / Network Burst (NB) Frequency / Number of Active Electrodes / Weighted Mean Firing Rate (Hz) / Burst Frequency (Hz), effect vs reference BENO / Interspike Interval in a burst (s), effect vs reference BENO / Network Burst (NB) Frequency, effect vs reference BENO / Number of Active Electrodes, effect vs reference BENO / Weighted Mean Firing Rate (Hz), effect vs reference BENO: CNQX 15 μM; for Burst frequency, change in words / Weighted mean firing rate, change in words: text and figure legend
From the text: BioEngineered Neuronal Organoids (BENOs) were generated in line with the BENO generation protocol provided in Zafeiriou et al. (Nature Communications, 2020, 11:3791, https://doi.org/10.1038/s41467-020-17521-w).
The method used for this illustrative example was a multi-electrode array (MEA) recording. In particular, six-well plates with 64 platinum microelectrodes arrays per well (0.04 MQ/microelectrode, 30 μm microelectrode diameter, 200 μm spacing) were coated with Matrigel™ 1:120 diluted in PBS for 1 h at room temperature prior seeding. One or two slices (thickness: 300 μm) were placed into a MEA well and immobilized by a concentrically coiled tungsten ring. 10-15 min recordings/2 h were performed every other day for up to 60 days using a Maestro pro MEA system (Axion Biosystems). Data recordings were automatically scheduled with the Axion Software (AxIS Navigator) using the manufacturer's Spontaneous Neural Configuration. Data analysis was performed using the manufacturer's standalone tools, Neural Metric Tool, and AxIS Metric Plotting Tool (Axion Biosystems). […] Spike bursts were identified using an ISI threshold requiring a minimum number of five spikes with a maximum ISI of 100 ms. Network Bursts (NB) were identified by an envelope algorithm with a threshold of 1.25, minimum IBI interval of 100 ms, 75% burst inclusion with a minimum of 10% active electrodes.

[5] = BENO day 50 to day 60, 10 min treatment, PIC 58 μM, 4 tissues
[6] = BENO day 60, 10 min treatment, PIC 58 μM, threshold 2× SD
[7] = BENO day 60, treated vs reference
[8] = BENO day 60, treated vs reference, listed as Picrotoxin

Compound | Burst Frequency (Hz) [4, 5] [Hz] | Interspike Interval in a burst [4, 5] [s] | Network Burst (NB) Frequency [4, 5] | Number of Active Electrodes [4, 5] | Weighted Mean Firing Rate (Hz) [4, 5] [Hz] | Burst Frequency (Hz), effect vs reference BENO [4, 6] | Interspike Interval in a burst (s), effect vs reference BENO [4, 6] | Network Burst (NB) Frequency, effect vs reference BENO [4, 6] | Number of Active Electrodes, effect vs reference BENO [4, 6] | Weighted Mean Firing Rate (Hz), effect vs reference BENO [4, 6] | Network burst frequency, change in words [4, 7] | Burst frequency, change in words [4, 7] | Weighted mean firing rate, change in words [4, 7] | also measured
Cc1ccc(=O)n(-c2ccccc2)c1 [Pirfenidone] |  |  |  |  |  |  |  |  |  |  |  |  |  | IC50 [1]: 430 µg/mL (≈ 2320 µM)
TGF-B1: pro-fibrotic cytokine applied at 5 ng/ml to reference ECT |  |  |  |  |  |  |  |  |  |  |  |  |  | Contraction (%) [2]: 39.4%; Young's modulus (kPa) [3]: 76.4 kPa
N#Cc1cc2[nH]c(=O)c(=O)[nH]c2cc1[N+](=O)[O-] [CNQX, Cyanquixalin] | 0.02 | 0.03 | 0 | 2 | 0.6 | ↔ (<2SD change) | ↑ (>2SD increase) | ↓ (>2SD decrease) | ↓ (>2SD decrease) | ↓ (>2SD decrease) | decrease | reduced to the predetermined threshold of 2× SD, though not exceeding it; also recorded: decrease; also recorded: reduced | decrease; also recorded: reduced | Interspike interval in a burst, change in words ([4]; BENO day 60, after treatment): higher
C=C(C)[C@@H]1[C@H]2OC(=O)[C@@H]1[C@]1(O)C[C@H]3OC34C(=O)O[C@H]2[C@@]41C.CC(C)(O)[C@@H]1[C@H]2OC(=O)[C@@H]1[C@]1(O)C[C@H]3OC34C(=O)O[C@H]2[C@@]41C (stereo partly shown) [PIC, Picrotoxin] | 0.2 | 0.02 | 0.09 | 23 | 4.7 | ↑ (>2SD increase) | ↔ (<2SD change) | ↑ (>2SD increase) | ↔ (<2SD change) | ↑ (>2SD increase) | increased | increase | increase | Interspike Interval in a NB [4, 5]: 0.002 s; NB Duration [4, 5]: 1.4 ± 0.4 s; NB percentage [4, 5]: 43 ± 42; Spontaneous activity, change in words ([4]; BENO day 60): increased; Interspike Interval in a NB (s), effect vs reference BENO [4, 6]: ↔ (<2SD change); NB Duration (s), effect vs reference BENO [4, 6]: ↑ (>2SD increase); NB percentage, effect vs reference BENO [4, 6]: ↔ (<2SD change); Network burst duration (network burst complexity), change in words [4, 7]: decreased; Burst frequency, change in words [4, 8]: increases; Weighted mean firing rate, change in words [4, 8]: increased
